The target in the assay is Cannabinoid receptor 2 (Homo sapiens, UniProt P34972).

Structures are written as SMILES.

Cannabinoid receptor 2, sequence (P34972 whole entry): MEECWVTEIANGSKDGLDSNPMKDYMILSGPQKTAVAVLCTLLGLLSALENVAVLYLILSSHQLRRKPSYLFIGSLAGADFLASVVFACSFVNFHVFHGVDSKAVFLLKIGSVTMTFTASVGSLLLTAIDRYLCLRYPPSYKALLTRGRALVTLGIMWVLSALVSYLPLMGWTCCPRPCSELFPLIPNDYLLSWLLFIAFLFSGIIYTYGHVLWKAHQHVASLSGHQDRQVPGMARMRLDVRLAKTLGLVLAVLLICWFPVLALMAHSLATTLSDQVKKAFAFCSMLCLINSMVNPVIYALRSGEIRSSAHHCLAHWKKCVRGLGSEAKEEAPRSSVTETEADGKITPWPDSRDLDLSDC

As usually defined, the Ki is the dissociation constant of the complex between target and ligand, obtained from inhibition or displacement. Take `O=C(c1cc2c(cc1F)OC(c1ccc(F)cc1)(c1ccc(Cl)cc1Cl)O2)N1CCOCC1` (stereo unspecified) [CAS_24828562]: the Ki was determined as 3 nM.

For the origin of these results see BindingDB's records for doi:10.1021/jm701487t (F. Hoffmann-La Roche, 2008).
